Measurements reported in ChEMBL document CHEMBL1136455, “The synthesis and antibacterial activity of 1,3,4-thiadiazole phenyl oxazolidinone analogues” (Bioorg Med Chem Lett, 2003).
In brackets after ≈: the same amount, converted by molar mass.

What was measured:
Assay type in all cases: functional
Staphylococcus aureus [1] = assay: In vitro antibacterial activity against methicillin susceptible Staphylococcus aureus UC 9213 (MSSA)
Moraxella catarrhalis = assay: In vitro antibacterial activity against Moraxella catarrhalis 30607
Streptococcus pneumoniae = assay: In vitro antibacterial activity against penicillin sensitive Streptococcus pneumoniae UC 9912
Enterococcus faecalis = assay: In vitro antibacterial activity against vancomycin resistant Enterococcus faecalis UC 9217 (VREA)
Staphylococcus aureus [2] = assay: In vitro antibacterial activity against methicillin resistant Staphylococcus aureus UC 12673 (MRSA)
Haemophilus influenzae = assay: In vitro antibacterial activity against ampicillin resistant Haemophilus influenzae 30063 (B-lactamase +)
[3] = test system: Staphylococcus epidermidis; assay: In vitro antibacterial activity against methicillin resistant Staphylococcus epidermidis UC 12084
Mus musculus [4] = assay: In vivo efficacy to protect the Staphylococcus aureus infected mouse and the activity was reported using Linezolid as a control with ED50 = 5
Mus musculus [5] = assay: In vivo efficacy to protect the Staphylococcus aureus infected mouse and the activity was reported using Linezolid as a control with ED50 = 5.6
Mus musculus [6] = assay: In vivo efficacy to protect the Staphylococcus aureus infected mouse and the activity was reported using Linezolid as a control with ED50 = 2.2
Mus musculus [7] = assay: In vivo efficacy to protect the Staphylococcus aureus infected mouse and the activity was reported using Linezolid as a control with ED50 = 3.8
Mus musculus [8] = assay: In vivo efficacy to protect the Staphylococcus aureus infected mouse and the activity was reported using Linezolid as a control with ED50 = 3.1
Mus musculus [9] = assay: In vivo efficacy to protect the Staphylococcus aureus infected mouse and the activity was reported using Linezolid as a control with ED50 = 3.7
Mus musculus [10] = assay: In vivo efficacy to protect the Staphylococcus aureus infected mouse and the activity was reported using Linezolid as a control with ED50 =4
Mus musculus [11] = assay: In vivo efficacy to protect the Staphylococcus aureus infected mouse and the activity was reported using Linezolid as a control with ED50 = 4.3

| Compound | MIC (Staphylococcus aureus [1]) [µg/mL] | MIC (Moraxella catarrhalis) [µg/mL] | MIC (Streptococcus pneumoniae) [µg/mL] | MIC (Enterococcus faecalis) [µg/mL] | MIC (Staphylococcus aureus [2]) [µg/mL] | MIC (Haemophilus influenzae) [µg/mL] | MIC [3] [µg/mL] | ED50 (Mus musculus [4]) [mg/kg] | ED50 (Mus musculus [5]) [mg/kg] | ED50 (Mus musculus [6]) [mg/kg] | ED50 (Mus musculus [7]) [mg/kg] | ED50 (Mus musculus [8]) [mg/kg] | ED50 (Mus musculus [9]) [mg/kg] | ED50 (Mus musculus [10]) [mg/kg] | ED50 (Mus musculus [11]) [mg/kg] |
| --- | --- | --- | --- | --- | --- | --- | --- | --- | --- | --- | --- | --- | --- | --- | --- |
| CC(=O)NC[C@H]1CN(c2ccc(-c3nnc(CS(C)(=O)=O)s3)c(F)c2)C(=O)O1 | 4 (≈ 9.34 µM) | 4 (≈ 9.34 µM) | < 0.5 | 2 (≈ 4.67 µM) | 4 (≈ 9.34 µM) | 4 (≈ 9.34 µM) | 1 (≈ 2.33 µM) |  |  |  |  |  |  |  |  |
| C/C(S)=N/C[C@H]1CN(c2ccc(-c3nnc(CS(C)(=O)=O)s3)c(F)c2)C(=O)O1 | 0.25 (≈ 0.562 µM) | 0.5 (≈ 1.12 µM) | 0.06 (≈ 0.135 µM) | 0.25 (≈ 0.562 µM) | 0.5 (≈ 1.12 µM) | 2 (≈ 4.5 µM) | 0.25 (≈ 0.562 µM) | > 20 |  |  |  |  |  |  |  |
| C/C(S)=N/C[C@H]1CN(c2ccc(-c3nncs3)c(F)c2)C(=O)O1 | 0.25 (≈ 0.709 µM) | 0.25 (≈ 0.709 µM) | < 0.125 | 0.125 (≈ 0.355 µM) | < 0.125 | 1 (≈ 2.84 µM) | < 0.125 |  | > 20 |  |  |  |  |  |  |
| COCc1nnc(-c2ccc(N3C[C@H](CNC(C)=O)OC3=O)cc2F)s1 | 2 (≈ 5.26 µM) | 4 (≈ 10.5 µM) | 0.25 (≈ 0.657 µM) | 1 (≈ 2.63 µM) | 1 (≈ 2.63 µM) | 8 (≈ 21 µM) | 4 (≈ 10.5 µM) |  |  | 5.8 |  |  |  |  |  |
| CCOC(=O)c1nnc(-c2ccc(N3C[C@H](CNC(C)=O)OC3=O)cc2F)s1 | 8 (≈ 19.6 µM) | 16 (≈ 39.2 µM) | < 0.125 | 8 (≈ 19.6 µM) | 8 (≈ 19.6 µM) | > 16 | 2 (≈ 4.9 µM) |  |  |  |  |  |  |  |  |
| CC(=O)NC[C@H]1CN(c2ccc(-c3nnc(O)s3)c(F)c2)C(=O)O1 | 1 (≈ 2.84 µM) | 4 (≈ 11.4 µM) | 0.125 (≈ 0.355 µM) | 1 (≈ 2.84 µM) | 1 (≈ 2.84 µM) | 4 (≈ 11.4 µM) | 0.5 (≈ 1.42 µM) |  |  |  | 13 |  |  |  |  |
| CC(=O)NC[C@H]1CN(c2ccc(-c3nnc(CC/C(C)=N/O)s3)c(F)c2)C(=O)O1 | 2 (≈ 4.75 µM) | 4 (≈ 9.49 µM) | < 0.125 | 1 (≈ 2.37 µM) | 2 (≈ 4.75 µM) | 4 (≈ 9.49 µM) | 0.5 (≈ 1.19 µM) | > 20 |  |  |  |  |  |  |  |
| CC(=O)NC[C@H]1CN(c2ccc(-c3nnc(CO)s3)c(F)c2)C(=O)O1 | 1 (≈ 2.73 µM) | 2 (≈ 5.46 µM) | < 0.125 | 1 (≈ 2.73 µM) | 1 (≈ 2.73 µM) | 4 (≈ 10.9 µM) | 0.25 (≈ 0.682 µM) |  |  |  |  | 8.7 |  |  |  |
| CC(=O)NC[C@H]1CN(c2ccc(-c3nnc(COC(C)=O)s3)c(F)c2)C(=O)O1 | 1 (≈ 2.45 µM) | 2 (≈ 4.9 µM) | < 0.125 | 1 (≈ 2.45 µM) | 1 (≈ 2.45 µM) | 4 (≈ 9.79 µM) | 0.25 (≈ 0.612 µM) |  |  |  |  |  | 18.5 |  |  |
| CC(=O)NC[C@H]1CN(c2ccc(-c3nnc(CF)s3)c(F)c2)C(=O)O1 | 1 (≈ 2.71 µM) | 2 (≈ 5.43 µM) | 0.25 (≈ 0.679 µM) | 1 (≈ 2.71 µM) | 1 (≈ 2.71 µM) | 4 (≈ 10.9 µM) | 0.25 (≈ 0.679 µM) |  |  |  |  |  |  | 8.6 |  |
| CSCc1nnc(-c2ccc(N3C[C@H](CNC(C)=O)OC3=O)cc2F)s1 | 1 (≈ 2.52 µM) | 4 (≈ 10.1 µM) | 0.25 (≈ 0.631 µM) | 1 (≈ 2.52 µM) | 1 (≈ 2.52 µM) | > 16 | 0.25 (≈ 0.631 µM) |  |  |  |  |  |  |  |  |
| CNCc1nnc(-c2ccc(N3C[C@H](C/N=C(/C)S)OC3=O)cc2F)s1 | < 0.5 | < 0.5 | < 0.5 | < 0.5 |  | < 0.5 | < 0.5 |  |  |  |  |  |  |  | > 20 |
